Measured values published in patent US20110230428A1, “CERTAIN KYNURENINE-3-MONOOXYGENASE INHIBITORS, PHARMACEUTICAL COMPOSITIONS, AND METHODS OF USE THEREOF” (priority 2008, published 2011).
Structures can show the parent of a compound that is named as a salt.

biological target: T1, KMO mouse enzyme (Mus musculus, UniProt Q91WN4); experiment: KMO mouse enzyme assay: L-Kynurenine hydroxylation to 3OH-KYN by LC/MS; assay type: biochemical; settings: compound at 10 μM; KMO from mouse liver mitochondria; read-out: INH.Mouse @ 10 μM
T1 construct: KMO enzyme prepared at Evotec from mouse liver (4-6 weeks old) via mitochondria isolation; from tissue; host or cells: mouse liver (4-6 weeks old), isolated mitochondria
Protocol: A method of monitoring L-Kynurenine (KYN) hydroxylation to form 3-Hydroxy-Kynurenine (3OH-KYN) by LC/MS is described. Product is quantified by multiple reaction monitoring (MRM method).
• Compound: Stock concentrations: 10 mM in 100% DMSO • Enzyme: KMO enzyme prepared at Evotec from mouse liver (4-6 weeks old) via mitochondria isolation as described in the literature • Substrate: L-Kynurenine (Sigma: Cat# K3750, stock concentration: 10 mM in 100 mM potassium phosphate buffer, pH 7.4)
• Buffer: 100 mM potassium phosphate, pH 7.4, 200 μM NADPH, 0.4 U/ml G6P-DH (Glucose 6-phosphate Dehydrogenase), 3 mM G6P (D-Glucose 6-phosphate) • Assay Volume: 40 μl • Plate Format: 384 well plate, transparent (Matrix) • Read-Out: product (3OH-KYN) quantification using product specific MRM • Reader: LC/MS/MS
• prepare serial dilution (factor 3) of compound in 100% DMSO (top concentration=10 mM, 100% DMSO) • [8 points: 10 mM; 3.33 mM; 1.11 mM; 0.37 mM; 0.12 mM; 0.04 mM; 0.0137 mM; 0.0045 mM, 0.0015 mM] • prepare […] solution of each compound concentration (top concentration 300 μM, 3% DMSO) in assay buffer • [concentrations: 300 μM; 100 μM; 33.3 μM; 11.1 μM; 3.70 μM; 1.23 μM; 0.41 μM; 0.137 μM] • prepare substrate (10 mM) at concentration of 1 mM in assay buffer • assay mix: 4 μl compound/well of each concentration+24 μl assaybuffer/well+8 μl KMO mouse enzyme+4 μl 1 mM substrate (final concentration=100 μM) • [final compound top concentration: 30 μM; 0.3% DMSO] • [final compound bottom concentration: 0.0137 μM; 0.3% DMSO] • positive control: 4 μl 50 μM FCE28833 in assay buffer, 0.5% DMSO [final assay concentration=5 μM]+24 μl assaybuffer/well+8 μl KMO mouse enzyme+4 μl 1 mM substrate [final concentration=100 μM] • negative control: 28 μl assay buffer/well+8 μl KMO mouse enzyme+4 μl 1 mM substrate [final concentration=100 μM] • incubate 40 min at RT • add 40 μl/well 10% trichloro acetic acid in water to stop the assay and precipitate protein • centrifuge plate for 3 min at 4000 rpm • product detection by LC/MS (injection of 20 μl/well, 2 fold overfill of the 10 μl sample loop) Data analysis: IC50's are calculated using automated fitting algorithm (A+Analysis).
Using procedures similar to those described herein, the following compounds were assayed for activity.

T1 sequence (Q91WN4 whole entry): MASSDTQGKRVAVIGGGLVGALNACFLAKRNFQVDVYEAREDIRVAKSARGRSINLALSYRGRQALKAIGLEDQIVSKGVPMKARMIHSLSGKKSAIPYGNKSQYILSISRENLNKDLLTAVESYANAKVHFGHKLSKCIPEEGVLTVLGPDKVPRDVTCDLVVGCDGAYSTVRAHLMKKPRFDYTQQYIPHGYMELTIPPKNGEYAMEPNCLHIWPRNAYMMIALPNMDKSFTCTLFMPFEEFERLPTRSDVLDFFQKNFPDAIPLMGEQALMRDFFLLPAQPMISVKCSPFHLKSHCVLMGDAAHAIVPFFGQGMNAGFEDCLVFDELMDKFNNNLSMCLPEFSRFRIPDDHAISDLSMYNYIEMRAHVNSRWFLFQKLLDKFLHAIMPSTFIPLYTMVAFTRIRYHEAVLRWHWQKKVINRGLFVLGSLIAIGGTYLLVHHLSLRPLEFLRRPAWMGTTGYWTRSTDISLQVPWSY

inhibition at 10 µM	Compound
74.6%	CON=C(CCC#N)c1ccc(Cl)c(Cl)c1 [4-(3,4-Dichloro-phenyl)-4-methoxyimino-butyronitrile]
75.7%	CON=C(CCC(=O)NCC(O)CO)c1ccc(Cl)c(Cl)c1 (centres unmarked) [4-(3,4-Dichloro-phenyl)-N-(2,3-dihydroxy-propyl)-4-methoxyimino-butyramide]
85%	CON=C(CCC(=O)Nc1c(C)ccnc1C)c1ccc(Cl)c(Cl)c1 [4-(3,4-Dichloro-phenyl)-N-(2,4-dimethyl-pyridin-3-yl)-4-methoxyimino-butyramide]
93%	CON=C(CCC(=O)Nc1ccc(C)nc1C)c1ccc(Cl)c(Cl)c1 [4-(3,4-Dichloro-phenyl)-N-(2,6-dimethyl-pyridin-3-yl)-4-methoxyimino-butyramide]
95.7%	CON=C(CCC(=O)NCCO)c1ccc(Cl)c(Cl)c1 [4-(3,4-Dichloro-phenyl)-N-(2-hydroxy-ethyl)-4-methoxyimino-butyramide]
98.8%	CON=C(CCC(=O)NCC(C)O)c1ccc(Cl)c(Cl)c1 (centres unmarked) [4-(3,4-Dichloro-phenyl)-N-(2-hydroxy-propyl)-4-methoxyimino-butyramide]
101%	CON=C(CCC(=O)Nc1ncc(C)nc1C)c1ccc(Cl)c(Cl)c1 [4-(3,4-Dichloro-phenyl)-N-(3,5-dimethyl-pyrazin-2-yl)-4-methoxyimino-butyramide]
90.3%	CON=C(CCC(=O)Nc1cncc(F)c1)c1ccc(Cl)c(Cl)c1 [4-(3,4-Dichloro-phenyl)-N-(5-fluoro-pyridin-3-yl)-4-methoxyimino-butyramide]
91.7%	CON=C(CCC(=O)Nc1ccc(F)nc1)c1ccc(Cl)c(Cl)c1 [4-(3,4-Dichloro-phenyl)-N-(6-fluoro-pyridin-3-yl)-4-methoxyimino-butyramide]
98.9%	CCNC(=O)CC/C(=N\OC)c1ccc(Cl)c(Cl)c1 [4-(3,4-Dichloro-phenyl)-N-ethyl-4-methoxyimino-butyramide]
94.3%	CO/N=C(\CCC(=O)NC(C)C)c1ccc(Cl)c(Cl)c1 [4-(3,4-Dichloro-phenyl)-N-isopropyl-4-methoxyimino-butyramide]
101%	CO/N=C(\CCC(=O)Nc1ccon1)c1ccc(Cl)c(Cl)c1 [4-(3,4-Dichloro-phenyl)-N-isoxazol-3-yl-4-methoxyimino-butyramide]
102%	CON=C(CCC(=O)N(C)OC)c1ccc(Cl)c(Cl)c1 [4-(3,4-Dichloro-phenyl)-N-methoxy-4-methoxyimino-N-methyl-butyramide]
98.7%	CO/N=C(\CCC(=O)O)c1cc(Cl)cc(Cl)c1 [4-(3,5-Dichloro-phenyl)-4-methoxyimino-butyric acid]
101%	CON=C(CCC(=O)O)c1cccc(Cl)c1 [4-(3-Chloro-phenyl)-4-methoxyimino-butyric acid]
66%	COC(=O)CC/C(=N\OCc1ccccc1)c1ccc(Cl)c(Cl)c1 [4-Benzyloxyimino-4-(3,4-dichloro-phenyl)-butyric acid methyl ester]
61.9%	O=C(O)CC/C(=N\OCc1ccccc1)c1ccc(Cl)c(Cl)c1 [4-Benzyloxyimino-4-(3,4-dichloro-phenyl)-butyric acid]
99.6%	O=C(O)CC/C(=N\OCC1CC1)c1ccc(Cl)c(Cl)c1 [4-Cyclopropylmethoxyimino-4-(3,4-dichloro-phenyl)-butyric acid]
49.5%	NCCON=C(CCC(=O)O)c1ccc(Cl)c(Cl)c1 [4-[2-Amino-ethoxyimino]-4-(3,4-dichloro-phenyl)-butyric acid trifluoroacetic acid salt]
75.2%	CO/N=C(\CCC(=O)NC1CCN(C(=O)OC(C)(C)C)CC1)c1ccc(Cl)c(Cl)c1 [4-[4-(3,4-Dichloro-phenyl)-4-methoxyimino-butyrylamino]-piperidine-1-carboxylic acid tert-butyl ester]
71.5%	CON=C(CCCC#N)c1ccc(Cl)c(Cl)c1 [5-(3,4-Dichloro-phenyl)-5-methoxyimino-pentanenitrile]
61.2%	CON=C(CCCC(=O)OC)c1ccc(Cl)c(Cl)c1 [5-(3,4-Dichloro-phenyl)-5-methoxyimino-pentanoic acid methyl ester]
78.3%	CON=C(CCCC(=O)O)c1ccc(Cl)c(Cl)c1 [5-(3,4-Dichloro-phenyl)-5-methoxyimino-pentanoic acid]
61%	CON=C(c1ccc(Cl)c(Cl)c1)C1C[C@@H]1C(=O)OC (stereo partly drawn) [(1S,2S)-trans-2-[(3,4-Dichloro-phenyl)-methoxyimino-methyl]-cyclopropanecarboxylic acid methyl ester]
81.2%	CON=C(c1ccc(Cl)c(Cl)c1)[C@H]1C[C@@H]1C(=O)O [(1S,2S)-trans-2-[(3,4-Dichloro-phenyl)-methoxyimino-methyl]-cyclopropanecarboxylic acid]
100%	CO/N=C(\CCC(=O)NC1CC1)c1ccc(Cl)c(Cl)c1 [N-Cyclopropyl-4-(3,4-dichloro-phenyl)-4-methoxyimino-butyramide]
68%	CON=C(CCC(=O)NCCN(C)C)c1ccc(Cl)c(Cl)c1 [{2-[4-(3,4-Dichloro-phenyl)-4-methoxyimino-butyrylamino]-ethyl}-dimethyl-ammonium trifluoroacetate]

Compound	inhibition at 10 µM
COC(=O)CCC(=NOCCNC(=O)OC(C)(C)C)c1ccc(Cl)c(Cl)c1 [4-[2-tert-Butoxycarbonylamino-ethoxyimino]-4-(3,4-dichloro-phenyl)-butyric acid methyl ester]	56.4%
CC(C)(C)OC(=O)NCCON=C(CCC(=O)O)c1ccc(Cl)c(Cl)c1 [4-[2-tert-Butoxycarbonylamino-ethoxyimino]-4-(3,4-dichloro-phenyl)-butyric acid]	61.9%
